Laboratory results published in patent US11839614B2, “Methods for treating or mitigating cardiotoxicity characterized by inhibition of adenosine A2 signaling and/or adenosine A2 receptor expression” (INTRA-CELLULAR THERAPIES, INC., priority 2018, dated 2023).

How the values were obtained:
r-hPDE1A = biological target: T1, r-hPDE1A (Homo sapiens, UniProt P54750); assay: Ki for full-length recombinant PDE1A; assay type: biochemical
T1 construct: Its Kis for full-length recombinant r-hPDE1A, 1B, and 1C are 34, 380, and 37 pM
Excerpt: (§1) Additional pharmaceuticals used in the following examples are dobutamine (Hospira Inc., Lake Forest, Ill.), esmolol HCl (Mylan, Rockford, Ill.), MRS1754 (Tocris Bioscience, Bristol, UK), and Hespan (6% Hetastarch in 0.9% NaCl B. Braun Medical Inc., Bethlehem, Pa.).

Plasma level in mice = assay type: in vivo; settings: iv, mouse, 15 minutes after i.v. dosing
Description: Rabbit dosing at 0.1 mg/kg i.v. yields plasma values of 213±88 ng/mL at 15 min. Mouse plasma levels 15 minutes after i.v. dosing was 334+/−74 ng/mL. Therapeutic levels are 100-300 ng/mL, and so analysis is presented after 120 min for P.O. and after 20 min for i.v. (somewhat sooner in rabbit and mouse due to faster kinetics).
(§2) To test this, mice were administered the same or higher intravenous bolus doses (0.1, 0.5 mg/kg) as used in dogs and rabbits, and studied using a similar preparation to the rabbit.

[1] = Plasma Compound 1 levels in dogs (LC/MS-MS); assay type: in vivo; settings: dog; for concentration at 10 min / concentration at 30 min / concentration at 120 min: mongrel, plasma; for concentration at 10 min / concentration at 30 min: iv; for concentration at 120 min: po, 10 mg, 10 mg P.O., 120 min post dose
Description: Dogs are studied in the conscious state before and after inducing dilated cardiomyopathy by tachypacing for two weeks at 200 bpm.
The study employs two doses, 0.01 and 0.1 mg/kg, the latter administered 30 minutes after the first.
(§3) Intravenous blood is placed in K2EDTA tubes, centrifuged at 2,000 g for 15 min, plasma decanted, and stored frozen. Compound 1 levels are assessed by a rapid, sensitive liquid chromatography-tandem mass spectrometric (LC/MS-MS) method.
The mobile phase consists of a gradient of 60-100% methanol over 4.5 minutes in 5 mM ammonium bicarbonate with 0.2% NH3H2O, pumped at a flow rate of 0.8 mL/min. Analysis time is 4.5 min and both the analyte and internal standard eluted around 2.0 min. Multiple reactions monitoring (MRM) mode is used to detect Compound 1. MS is operated in the positive ion detection mode. […] Calibration curves are linear from 0.02-500 ng/mL in dog plasma sample matrices. The lower limit of quantification (LLOQ) for plasma was 0.02 ng/mL.

plasma cAMP and cGMP = assay: Plasma cAMP and cGMP by ELISA in dogs; assay type: in vivo, dog
Description: Blood plasma is obtained from these animals, and cAMP and cGMP are assayed by ELISA.

myocyte cAMP = assay: Whole cell cAMP in isolated rabbit myocytes; assay type: cell-based; settings: agent added to Fsk
Excerpt: This is consistent with prior studies showing locally generated cAMP from β-AR and its modulation by PDE3 occur in local subcellular domains that are not easily detected in whole cell lysates32.

PDE4D = PDE4D (Homo sapiens, UniProt Q08499)
Excerpt: as §1

murine heart = assay: Acute cardiovascular effects in intact mice; assay type: in vivo, mouse; settings: intravenous bolus 0.1, 0.5 mg/kg
Description: as §2

[2] = test system: rabbit heart and vasculature; assay: Anesthetized rabbit pressure-volume hemodynamics with or without esmolol or MRS-1754; assay type: in vivo
Excerpt: Cyclic AMP is generated largely by transmembrane adenylyl cyclases activated via stimulatory G protein (Gs), with β-adrenergic, adenosine (primarily A2B), glucagon, prostanoids, histamine, and serotonin all coupling to Gs in cardiomyocytes. The present studies focus on beta-adrenergic and adenosine receptors, and for the latter, concentrated on the A2B receptor, which has been reported to directly stimulate cAMP-dependent contractility. […] Relaxation changes are also modest with LV preload (end-diastolic and volume) unaltered; however, the combined vasodilator-inotropic response doubled ventricular/arterial coupling ratio, Ees/Ea.
(§4) New Zealand White rabbits (male, 2-3 kg) are sedated with 35 mg/kg ketamine and 5 mg/kg xylazine, intubated and ventilated (Model 683, Harvard Apparatus, Holliston, Mass.), with anesthesia maintained with isoflurane inhalation (1-2%). A pressure-volume catheter (SPR-894, Millar, Inc., Houston, Tex.) is inserted via the common carotid artery and advanced to the LV apex, and a 2-Fr pacing catheter is positioned in the right atrium via the right jugular vein to provide atrial pacing. […] The parallel conductance is determined by the hypertonic saline injection method. Rabbits are infused with 6% hetastarch in saline during the procedure to stabilize arterial pressure.

adult rabbit myocytes = assay: Contraction and calcium transients in isolated rabbit cardiomyocytes; assay type: cell-based
Description: To test whether PDE1 inhibition directly impacts cardiomyocyte contraction and calcium transients, studies are carried out on normal adult rabbit myocytes. […] As PDE1 requires sufficient cAMP and Ca^2+ to be impactful, a dose response was performed to the adenylate cyclase activator, forskolin (FSK) to determine the lowest dose producing a modest but significant inotropic effect (1 μM).
Rabbit myocytes were isolated to determine the effect of PDE1 inhibition on cardiomyocyte contraction and whole cell Ca2+ transients, and to compare the results to those with a PDE3 inhibitor, cilostamide (Cil, 1 μM).
An alternative approach to augmenting cAMP independent of […] is to directly stimulate adenylate cyclase using forskolin (Fsk). A dose response study was carried out to identify a non-saturating Fsk dose that still generated significant inotropic effects (1 μM).

[3] = Plasma level in rabbits (LC/MS-MS); assay type: in vivo; settings: male, New Zealand White, iv, rabbit, 0.1 mg/kg i.v.
Description: as §4, §3
The mobile phase consists of a gradient of 60-100% methanol over 4.5 minutes in 5 mM ammonium bicarbonate with 0.2% NH3H2O, pumped at a flow rate of 0.8 mL/min. Analysis time is 4.5 min and both the analyte and internal standard eluted around 2.0 min. Multiple reactions monitoring (MRM) mode is used to detect Compound 1. MS is operated in the positive ion detection mode. […] The lower limit of quantification (LLOQ) for plasma was 0.02 ng/mL.

r-hPDE1C = biological target: T2, r-hPDE1C (Homo sapiens, UniProt Q14123); assay: Ki for full-length recombinant PDE1C; assay type: biochemical
T2 construct: Its Kis for full-length recombinant r-hPDE1A, 1B, and 1C are 34, 380, and 37 pM
Excerpt: as §1

[4] = 0.1 mg/kg, plasma Compound 1 concentration, normal dogs, 0.1 mg/kg i.v.
[5] = 0.1 mg/kg, plasma Compound 1 level, failing dogs, IV administration
[6] = Compound 1 added after forskolin 1 μM
[7] = agent added to non-saturating Iso
[8] = agent alone: Cil 1 μM, Compound 1 1 μM, Iso non-saturating dose
[9] = agent alone: Iso 50 nM, Compound 1 up to 1 mM, IBMX 100 μM

PDE4D, sequence (Q08499 whole entry, species assumed): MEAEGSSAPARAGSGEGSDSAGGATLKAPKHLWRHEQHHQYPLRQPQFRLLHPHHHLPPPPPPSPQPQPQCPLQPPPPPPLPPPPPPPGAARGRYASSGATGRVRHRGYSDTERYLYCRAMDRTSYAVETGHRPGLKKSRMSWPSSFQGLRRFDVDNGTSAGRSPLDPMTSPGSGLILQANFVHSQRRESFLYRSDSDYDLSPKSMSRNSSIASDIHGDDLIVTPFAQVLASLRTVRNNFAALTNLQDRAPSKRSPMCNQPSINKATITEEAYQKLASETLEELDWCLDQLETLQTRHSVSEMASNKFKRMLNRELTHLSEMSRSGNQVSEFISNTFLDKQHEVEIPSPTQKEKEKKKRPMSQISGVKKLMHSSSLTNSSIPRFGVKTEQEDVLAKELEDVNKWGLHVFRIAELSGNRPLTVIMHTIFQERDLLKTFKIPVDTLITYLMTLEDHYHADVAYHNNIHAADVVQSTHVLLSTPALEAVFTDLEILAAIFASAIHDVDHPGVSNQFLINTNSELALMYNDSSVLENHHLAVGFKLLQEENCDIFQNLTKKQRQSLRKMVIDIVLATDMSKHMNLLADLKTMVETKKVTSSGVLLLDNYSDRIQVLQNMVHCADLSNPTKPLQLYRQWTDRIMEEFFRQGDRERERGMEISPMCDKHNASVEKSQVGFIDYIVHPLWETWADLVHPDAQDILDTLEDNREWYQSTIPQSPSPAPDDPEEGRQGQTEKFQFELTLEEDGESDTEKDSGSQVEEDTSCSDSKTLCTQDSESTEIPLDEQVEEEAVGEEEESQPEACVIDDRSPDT
T1 sequence (P54750 whole entry): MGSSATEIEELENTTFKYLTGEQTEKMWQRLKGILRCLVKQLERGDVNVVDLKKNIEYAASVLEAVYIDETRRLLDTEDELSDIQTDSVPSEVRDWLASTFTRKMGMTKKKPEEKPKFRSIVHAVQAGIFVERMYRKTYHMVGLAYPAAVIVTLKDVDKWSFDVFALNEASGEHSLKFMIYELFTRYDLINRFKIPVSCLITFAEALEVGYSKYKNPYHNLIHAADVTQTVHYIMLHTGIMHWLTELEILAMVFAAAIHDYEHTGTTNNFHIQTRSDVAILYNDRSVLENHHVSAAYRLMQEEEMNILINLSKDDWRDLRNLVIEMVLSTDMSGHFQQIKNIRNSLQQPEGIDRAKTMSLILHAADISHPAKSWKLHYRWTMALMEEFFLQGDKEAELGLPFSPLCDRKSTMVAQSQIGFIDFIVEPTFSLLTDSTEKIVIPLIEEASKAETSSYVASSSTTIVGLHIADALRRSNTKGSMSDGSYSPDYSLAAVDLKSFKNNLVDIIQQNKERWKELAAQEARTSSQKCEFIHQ
T2 sequence (Q14123 whole entry): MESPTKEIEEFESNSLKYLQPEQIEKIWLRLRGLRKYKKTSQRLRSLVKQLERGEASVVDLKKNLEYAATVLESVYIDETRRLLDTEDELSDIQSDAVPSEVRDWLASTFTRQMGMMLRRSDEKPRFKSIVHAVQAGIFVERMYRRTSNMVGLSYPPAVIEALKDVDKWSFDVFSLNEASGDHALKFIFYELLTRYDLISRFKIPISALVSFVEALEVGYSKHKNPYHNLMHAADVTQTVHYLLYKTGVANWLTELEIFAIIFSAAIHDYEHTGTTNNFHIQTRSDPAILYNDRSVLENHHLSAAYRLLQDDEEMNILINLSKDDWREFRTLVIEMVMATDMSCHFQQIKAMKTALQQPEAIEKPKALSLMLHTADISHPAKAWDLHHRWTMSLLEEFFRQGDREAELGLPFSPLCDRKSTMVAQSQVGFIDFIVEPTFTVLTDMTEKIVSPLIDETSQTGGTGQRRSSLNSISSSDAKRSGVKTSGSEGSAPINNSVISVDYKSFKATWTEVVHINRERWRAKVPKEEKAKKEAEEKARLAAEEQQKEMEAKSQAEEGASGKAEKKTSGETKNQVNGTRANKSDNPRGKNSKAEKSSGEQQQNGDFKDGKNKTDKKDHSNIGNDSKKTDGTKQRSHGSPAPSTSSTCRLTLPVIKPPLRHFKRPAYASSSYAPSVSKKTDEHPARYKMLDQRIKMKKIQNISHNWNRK

Compound: CN1C(=O)c2c(nn(Cc3ccc(-c4cccc(F)n4)cc3)c2Nc2ccccc2)N2C1=N[C@@H]1CCC[C@@H]12 [Compound 1, (6aR,9aS)-2-(4-(6-fluoropyridin-2-yl)benzyl)-5-methyl-3-(phenyl-amino)-5,6a,7,8,9,9a-hexahydrocyclopenta-[4,5]imidazo[1,2-a]pyrazolo[4,3-e]pyrimidin-4-(2H)-one monophosphate]
- Ki (r-hPDE1A): 0.034 nM
- concentration at 15 min (Plasma level in mice): 334 ng/mL
- therapeutic levels (plasma) ([1]; in vivo): 100 to 300 ng/mL
- concentration at 10 min ([1]; 0.01 mg/kg, plasma Compound 1 concentration, dogs, 0.01 mg/kg i.v.): 23.6 ± 8.6 ng/mL
- concentration at 10 min [1, 4]: 211 ± 60.7 ng/mL
- concentration at 30 min [1, 4]: 94.5 ± 21.2 ng/mL
- concentration at 10 min [1, 5]: 441 ± 92.5 ng/mL
- concentration at 30 min [1, 5]: 185 ± 28.9 ng/mL
- concentration at 120 min ([1]; plasma Compound 1 concentration, HF dogs): 178 ± 100 ng/mL
- concentration at 120 min ([1]; plasma Compound 1 concentration, normal dogs): 104 ± 8.5 ng/mL
- plasma cAMP (plasma cAMP and cGMP; HF dogs, single drugs): not significantly changed
- plasma cGMP (plasma cAMP and cGMP; all conditions, normal and HF models): remains unchanged
- whole cell cAMP (myocyte cAMP): substantially increased
- greater activity toward PDE1 isoforms compared with PDE4D (PDE4D): > 1000 fold
- hemodynamic or cardiac changes (murine heart): failed to show any significant hemodynamic or cardiac changes
- cardiac output ([2]; 0.1 mg/kg i.v. bolus alone): increases cardiac output
- heart rate ([2]; 0.1 mg/kg i.v. bolus alone): modestly elevated heart rate
- rise in end-systolic elastance ([2]; 0.1 mg/kg i.v. bolus alone): 50%
- rise in pre-load recruitable stroke work ([2]; 0.1 mg/kg i.v. bolus alone): 50%
- systemic resistance ([2]; 0.1 mg/kg i.v. bolus alone): lowered systemic resistance
- systolic pressure ([2]; 0.1 mg/kg i.v. bolus alone): no change in systolic pressure
- contractile and vasodilation effects ([2]; Compound 1 after esmolol): remain intact
- heart rate ([2]; Compound 1 after esmolol): no longer increases HR
- responses with heart rate fixed compared with heart rate allowed to change ([2]; atrially paced at ~20% above sinus node rate): nearly identical responses
- peak calcium transient (adult rabbit myocytes; [6]): remains unaltered
- relaxation/calcium decay rates (adult rabbit myocytes; [6]): significantly increases
- sarcomere shortening (adult rabbit myocytes; [6]): significantly increases
- shortening of calcium relaxation time constant, as share of the maximal achieved with IBMX (adult rabbit myocytes; FSK+Compound 1 versus FSK+IBMX): 67%
- Ca2+ transient decay rate (adult rabbit myocytes; agent added to Fsk 1 μM): enhanced the Ca2+ decay rate similarly to Cil
- peak Ca2+ transient (adult rabbit myocytes; agent added to Fsk 1 μM): no corresponding increase in peak Ca2+ transient
- sarcomere shortening (adult rabbit myocytes; agent added to Fsk 1 μM): sarcomere shortening rose as with Cil
- peak-Ca2+ (adult rabbit myocytes; [7]): no longer significantly different from pre-Iso baseline
- sarcomere shortening (adult rabbit myocytes; [7]): did not change further
- decay kinetics / relaxation times (adult rabbit myocytes; [8]): this was not observed
- peak-Ca2+ transient (adult rabbit myocytes; [8]): this was not observed
- percent sarcomere shortening (adult rabbit myocytes; [8]): this was not observed
- contraction/calcium decay time or rates (adult rabbit myocytes; [9]): no effect
- peak Ca2+ transient (adult rabbit myocytes; [9]): no effect
- sarcomere shortening (adult rabbit myocytes; [9]): no effect
- concentration at 15 min [3]: 213 ± 88 ng/mL
- Ki (r-hPDE1C): 0.037 nM
